# From PubChem BioAssay (NCI)
# Several values for one entry are separate records, joined by “and”; a condition that tells them apart may be missing. Identical values can stand only once.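 All cell lines were grown in 96-well plates and treated with compound for 48 hours. GI50: concentration for 50% inhibition of growth. TGI denotes the concentration required for complete inhibition of growth.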
# Experiments:
# Assay in all cases: NCI-60 cell line screen, 48 h
# [1] = tested on: HCT-116 colon
# [2] = tested on: TK-10 renal
# [3] = tested on: OVCAR-5 ovarian
# [4] = tested on: HL-60(TB) leukemia
# [5] = tested on: U251 CNS
# [6] = tested on: KM12 colon
# [7] = tested on: PC-3 prostate
# [8] = tested on: SK-OV-3 ovarian
# [9] = tested on: HOP-92 NSCLC
# [10] = tested on: NCI/ADR-RES ovarian
Structure (SMILES),TGI [1],TGI [2],TGI [3],TGI [4],TGI [5],TGI [6],TGI [7],TGI [8],TGI [9],TGI [10],GI50 [1],GI50 [2],GI50 [3],GI50 [4],GI50 [5],GI50 [6],GI50 [7],GI50 [8],GI50 [9],GI50 [10]
O=C1CC=C2C3CC4N(CCC45c4ccccc4N1C25)C/C3=C\CO (centres undefined),> 100 µM,> 100 µM,> 100 µM,> 100 µM,> 100 µM,> 100 µM,> 100 µM,> 100 µM,> 100 µM,> 100 µM,–,–,–,–,–,–,–,–,–,–
COc1ccc(NC(=O)c2ccc(C(F)(F)F)nc2Nc2ccc(Cl)cc2C)cc1Cl,13.1 µM,41.6 µM,25.4 µM,5.37 µM,14.9 µM,28 µM,12.1 µM,18.6 µM,6.79 µM,14.9 µM,3.08 µM,17.3 µM,9.62 µM,2.4 µM,4.23 µM,6.03 µM,3.53 µM,4.67 µM,2.9 µM,3.17 µM
O=C(O)c1nn(-c2ccc(Cl)cc2)c2c1C(=O)c1ccccc1C2=O,> 100 µM,> 100 µM,> 100 µM,> 100 µM,> 100 µM,> 100 µM,> 100 µM,> 100 µM,> 100 µM,> 100 µM,–,–,–,–,–,–,–,–,–,–
CC1(C)CC[C@]2(C(=O)NCCNCCN)CC[C@]3(C)C(=CC[C@@H]4[C@@]5(C)CCC(=O)C(C)(C)[C@@H]5CC[C@]43C)[C@@H]2C1,3.21 µM,4.1 µM,4.56 µM,4.71 µM,3.46 µM,3.4 µM,3.61 µM,6.09 µM,4.4 µM,22.7 µM,1.75 µM,1.91 µM,1.98 µM,2.07 µM,1.79 µM,1.85 µM,1.82 µM,2.56 µM,1.47 µM,7.81 µM
CN1CCN(c2ccncc2S(=O)(=O)N2CCN(C)CC2)CC1,> 100 µM,> 100 µM,> 100 µM,–,> 100 µM,> 100 µM,> 100 µM,> 100 µM,> 100 µM,> 100 µM,–,–,–,–,–,–,–,–,–,–
Cn1cc(-c2ncnc3ccc(-c4cnc(Cl)c(NS(C)(=O)=O)c4)cc23)c2ccccc21,98.1 µM,10.6 µM,> 100 µM,> 27.8 µM,23.4 µM,19.2 µM,26.1 µM,2.32 µM,0.634 µM,30.3 µM,2.37 µM,0.505 µM,0.382 µM,0.538 µM,1.65 µM,1.46 µM,0.361 µM,0.263 µM,0.0408 µM,1.24 µM
CCC(CO)Nc1nc(NCc2ccccc2)c2n[nH]c(C(C)C)c2n1 (centres undefined),14.5 µM,33.1 µM,36 µM,21 µM,25.3 µM,23.1 µM,31.5 µM,20.7 µM,19.5 µM,39.2 µM,4.03 µM,13.7 µM,13.4 µM,4.87 µM,11.4 µM,10.2 µM,7.01 µM,6.4 µM,3.75 µM,16.7 µM
O=C1/C(=C/c2ccc(Cl)cc2)N=C(c2ccccc2)N1c1cc(C(F)(F)F)ccc1Cl,48.3 µM,> 100 µM,64.2 µM,42.7 µM,> 100 µM,84 µM,71.8 µM,> 100 µM,58.5 µM,77.6 µM,16.8 µM,31.7 µM,24.9 µM,16.9 µM,22.5 µM,21.9 µM,20.8 µM,35.7 µM,20.3 µM,22.3 µM
C[C@]1(c2nc3c(C(N)=O)cccc3[nH]2)CCCN1,> 100 µM,> 100 µM,> 100 µM,> 100 µM,> 100 µM,> 100 µM,> 100 µM,> 100 µM,> 100 µM,> 100 µM,48.2 µM and 65.7 µM,> 100 µM,23.5 µM and > 75 µM,66.1 µM and > 100 µM,75.9 µM and > 100 µM,61.9 µM and > 86.2 µM,> 100 µM,> 100 µM,> 67.9 µM,> 100 µM
N#Cc1c(N)c(C(=O)c2ccc3c(c2)OCCO3)n2c1CCCC2,> 100 µM,> 100 µM,> 100 µM,> 27 µM,> 100 µM,> 100 µM,> 100 µM,> 38.3 µM,> 100 µM,> 52.5 µM,3.55 µM,> 28.5 µM,8.82 µM,2.8 µM,4.07 µM,1.37 µM,4.32 µM,5.47 µM,2.33 µM,1.12 µM
